Measured values taken from patent publication US20240262835A1, “PRMT5 INHIBITING COMPOUNDS AND USES THEREOF” (ANTENGENE DISCOVERY LIMITED, priority 2023, published 2024).

Columns and labels:
Caco-2 cell monolayer = Caco-2 cell monolayer model assay (permeability); format: in vitro ADME; conditions: Caco-2, 1 μM
Protocol: (§1) Caco-2 cell model was used to assess the permeability of the compounds disclosed herein. Caco-2 cell was obtained from the CO-BIOR and the CO-BIOR Number is CBP60025. The cell generation used in the experiment was P9.
(§2) 1) […] of cell culture medium was added to each well of the Transwell reservoir, respectively. And then the PET transwell plates were incubated at 37° C., 5% CO2 for 1 hour before cell seeding.
(§3) 2) Caco-2 cells were diluted to 3.43×10^5 cells/mL with culture medium and 100 μL of cell suspension were dispensed into the filter well of the 96-well PET Transwell plate. Cells were cultivated for 14-18 days in a cell culture incubator at 37° C., 5% CO2, 95% relative humidity. Cell culture medium was replaced every other day, beginning no later than 24 hours after initial plating.
(§4) 3) Measure the electrical resistance across the monolayer by using Millicell Epithelial Volt-Ohm measuring system. Record the electrical resistance for each well. Once all wells have been measured, return the plate(s) to the incubator.
(§5) 4) TEER of each well is calculated by the equation below. The TEER value of each well should be greater than 230 ohms·cm^2.
(§6) 1) Remove the Caco-2 plate(s) from the incubator. Wash the monolayer twice with pre-warmed HBSS (10 mM HEPES, pH 7.4). Then incubate the plate(s) at 37° C. for 30 minutes.
(§7) 2) Prepare stock solutions of control compounds in DMSO at 5 mM and dilute with HBSS (10 mM HEPES, pH 7.4) to get 5 μM working solutions. Prepare stock solutions of test compounds in DMSO at 1 mM and dilute with HBSS (10 mM HEPES, pH 7.4) to get 1 μM working solutions. Digoxin is used as the reference substrate of Pgp. Atenolol is used as the low permeability marker, minoxidil is used as the high permeability marker.
(§8) 3) To determine the rate of drug transport in the apical to basolateral direction, add 100 μL of the working donor solutions (without inhibitor) to the Transwell insert (apical compartment). Fill the wells in the receiver plate (basolateral compartment) with 300 μL of transport buffer. To determine the rate of drug transport in the basolateral to apical direction, add 300 μL of the working donor solutions (without inhibitor) to the receiver plate wells (basolateral compartment). Fill the Transwell insert (apical compartment) with 100 μL of transport buffer.
(§9) 4) Transfer 50 μL samples from the working solutions to 300 μL of cold MeOH:acetonitrile=1:1 with IS (50 ng/ml Labetalol, 50 ng/ml Tolbutamide) to prepare the time 0 samples. Incubate the Transwell plate at 37° C., 5% CO2 with shaking at 60 rpm on a rotary shaker for 2 hours.
(§10) 5) At the end of the transport period, transfer 50 μL of samples from apical and basolateral wells to a new 96-well plate. Add 300 μL of quenching solution (MeOH:acetonitrile=1:1 with IS (50 ng/ml Labetalol, 50 ng/mL Tolbutamide)) into each well of the plate(s). Vortex for 10 minutes. Samples are centrifuged at 4000 rpm g for 30 minutes. An aliquot of 100 μL of the supernatant is mixed with an appropriate volume of ultra-pure water (depends on the LC-MS/MS signal response and peak shape) before LC-MS/MS analysis.
(§11) 6) To determine the Lucifer Yellow leakage after 2-hour transport period, prepare stock solutions of Lucifer yellow in DMSO and dilute with HBSS (10 mM HEPES, pH 7.4) to reach the final concentration of 100 μM. Add 100 μL of the Lucifer yellow solution to the apical compartment. Fill the basolateral compartment with 300 μL of HBSS (10 mM HEPES, pH 7.4). Incubate the plate(s) at 37° C. for 30 minutes and remove 80 μL directly from the apical and basolateral wells and transfer to new 96 wells plates. Measure Lucifer Yellow fluorescence (to monitor monolayer integrity) in a fluorescence plate reader at 485 nm excitation and 530 nm emission.
(§12) 7) Discard the remaining solution in the cell plate, Add 300 μL of quenching solution (MeOH:acetonitrile=1:1 with IS (50 ng/ml Labetalol, 50 ng/mL Tolbutamide)) into each well of the plate(s), blow up and down and mix well for 5 times. […]

CYP1A2 = CYP1A2 (Homo sapiens (Human), UniProt P05177); conditions: microsomes
Protocol: (§13) CYP isoforms inhibitory activities of test compounds were measured in human liver microsome.
(§14) Preparation details of these substrates are given in below table. The substrate stock solution was stored in a −20° C. freezer. Prior to use, the substrate stock solution was removed from the freezer and allowed to rise to room temperature. Then the substrate stock solution was mixed on a whirly mixer for 30 seconds.
(§15) HLMs were stored in a −80° C. freezer. Prior to use, the pooled HLM was removed from the freezer and allowed to thaw in a 37° C. water bath and then stored on wet ice.
(§16) The positive control inhibitors and their concentrations used by each isozyme are summarized below.
(§17) All samples were incubated in a 37° C. water bath, with three parallels for each concentration of the test compound and two parallels for each concentration of the positive control inhibitor. 100 μL of microsome working solution was taken and added 2 μL of the test product or positive inhibitor working solution. 2 μL solvents was added to the solvent control, and put in a water bath to pre-incubate for 10 min. After pre-incubation, 98 μL of NADPH regeneration solution was added to all samples to start the reaction. Then the mixture was put back in the water bath and incubated for a certain period of time.
(§18) The reaction was quenched by 200 μL stop solution. […]
(§19) IC50 values were determined using 3- or 4-parameter logistic equation.

CYP2C19 = CYP2C19 (Homo sapiens (Human), UniProt P33261); assay: CYP isoforms inhibitory assay in human liver microsome, CYP2C19; format: in vitro ADME; conditions: substrate s-mephenytoin
Protocol: as §13, §14, §15, §16, §17, §18, §19

[1] = system: cryopreserved hepatocytes
[2] = system: cryopreserved hepatocytes; remark: listed apart in the source
Protocol: 1) 10 mM test compounds were provided.
(§20) 2) 30 mM positive control stock solutions: Dissolved accurate amount of positive control compounds in dimethyl sulfoxide (DMSO).
(§21) 3) 1000× Stock Solution: Diluted 10 mM test compounds and 30 mM positive control compounds to 1 mM and 3 mM with DMSO in 96-well plates.
(§22) 4) 100× Dosing Solution: Diluted 1 mM test compounds and 3 mM positive control compounds to 100 μM and 300 μM dosing solutions with ACN.
(§23) 5) Preparation of 0.5×10^6/mL cells suspension: cryopreserved cells were thawed, isolated and suspended in Incubation Medium, then diluted with pre-warmed Incubation Medium to 0.5×10^6 cells/mL.
(§24) 6) Add 198 μL of pre-warmed cell suspensions in 96-well plates.
(§25) 7) Preparation of Quenching Plate: Transfer 125 μL of stop solution in a set of pre-labeled 96-well plates.
(§26) 8) Spike 2 μL dosing solution to each well of 96-well plates in duplicate.
(§27) 9) For TO Samples, mix to achieve a homogenous suspension for about 1 min, then immediately transfer 25 μL of each sample into well containing 125 μL of ice-cold stop solution followed by mixing.
(§28) 10) Incubate all plates at 37° C. in a 95% humidified incubator at 5% CO2 to start the reactions with constant shaking.
(§29) 11) At 15, 30, 60 and 90 min, mix samples and then transfer 25 μL of each sample at each time point to well containing 125 μL of ice-cold stop solution followed by mixing.
(§30) 12) Medium Control (MC) sample plates (labeled as TO-MC and T90-MC) are prepared in the same way as cell incubation except that medium was used instead of cell suspension.
(§31) 13) At each corresponding time point, stop the reactions by removing the plates from incubator and mixing with 125 μL of ice-cold stop solution.
(§32) 14) Vortex the plates immediately on a plate shaker at 600 rpm for 10 minutes. Then, centrifuge all sample plates at 3220×g for 20 min at 4° C.
(§33) 15) After centrifugation, 80 μL/well of supernatant in the sample plates are transferred to another set of pre-labeled 96-well plates which containing 240 μL of ultra pure water according to the plate map.
(§34) 16) Analytical plates are sealed and store at 4° C. until LC-MS/MS analysis.
(§35) The remaining percents of test articles after incubation were calculated by the follow equations:
(§36) Use the following equation of first order kinetics to calculate T1/2 and CLint:

[3] = Caco-2 cell monolayer model assay (permeability); format: in vitro ADME; conditions: human
Protocol: as §1, §2, §3, §4, §5, §6, §7, §8, §9, §10, §11, §12

in vitro [4] = conditions: human, microsomes
in vitro [5] = conditions: rat, microsomes
[6] = Hepatic metabolic stability (HMS) assay, cynomolgus monkey hepatocytes; conditions: cynomolgus monkey, cryopreserved hepatocytes
Protocol: 1) 10 mM test compounds were provided.
as §20, §21, §22, §23, §24, §25, §26, §27, §28, §29, §30, §31, §32, §33, §34, §35, §36

[7] = Liver microsome metabolic stability (LMS) assay, cynomolgus monkey

CYP1A2, sequence (P05177 whole entry, canonical isoform): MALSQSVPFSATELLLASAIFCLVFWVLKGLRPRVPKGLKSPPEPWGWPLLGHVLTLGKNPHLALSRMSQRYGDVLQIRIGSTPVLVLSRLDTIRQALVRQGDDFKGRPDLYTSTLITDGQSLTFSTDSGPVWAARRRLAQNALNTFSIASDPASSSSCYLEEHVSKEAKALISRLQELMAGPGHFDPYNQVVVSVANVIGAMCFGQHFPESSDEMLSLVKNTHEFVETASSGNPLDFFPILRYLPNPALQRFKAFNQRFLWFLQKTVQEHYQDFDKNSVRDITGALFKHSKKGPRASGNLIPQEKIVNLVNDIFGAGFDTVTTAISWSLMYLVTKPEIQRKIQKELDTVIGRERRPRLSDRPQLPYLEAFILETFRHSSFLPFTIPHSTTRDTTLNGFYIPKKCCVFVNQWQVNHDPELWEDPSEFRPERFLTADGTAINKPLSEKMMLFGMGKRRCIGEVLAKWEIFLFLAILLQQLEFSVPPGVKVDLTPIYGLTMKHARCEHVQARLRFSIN
CYP2C19, sequence (P33261 whole entry, canonical isoform): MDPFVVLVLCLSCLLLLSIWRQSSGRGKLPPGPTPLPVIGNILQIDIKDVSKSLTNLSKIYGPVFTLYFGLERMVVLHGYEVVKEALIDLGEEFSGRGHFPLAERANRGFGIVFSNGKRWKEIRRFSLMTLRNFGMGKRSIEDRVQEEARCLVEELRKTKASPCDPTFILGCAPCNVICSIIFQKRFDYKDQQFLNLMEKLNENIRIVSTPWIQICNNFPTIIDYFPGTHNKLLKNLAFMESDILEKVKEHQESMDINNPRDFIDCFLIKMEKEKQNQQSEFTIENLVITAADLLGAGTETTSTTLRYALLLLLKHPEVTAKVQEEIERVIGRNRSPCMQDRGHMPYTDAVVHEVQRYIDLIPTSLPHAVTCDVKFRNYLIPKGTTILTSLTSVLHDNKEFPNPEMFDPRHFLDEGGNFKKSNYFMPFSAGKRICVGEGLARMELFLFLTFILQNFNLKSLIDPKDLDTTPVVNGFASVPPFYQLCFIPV

## CN(C(=O)c1ccc2nc(N)c3cncn3c2c1)C1COc2cc(C(F)(F)F)ccc21 (stereo not shown) [Compound 17]
Caco-2 cell monolayer
  Recovery AP − BL: 81.0%
  Recovery BL − AP: 85.6%
Caco-2 cell monolayer; 2 hours, pH 7.4
  Papp (A−B): 6.70 10^−6 cm/s
  Papp (B−A): 11.8 10^−6 cm/s
Caco-2 cell monolayer; Papp (B-A)/Papp (A-B)
  Efflux Ratio: 1.76
CYP1A2
  IC50: > 30 µM
CYP2C19
  IC50: 15.1 µM
[1]
  CLint (liver) R: 49.8 mL/min/kg
[1]; rat
  CLint (hep) R: 10.6 μL/min/10^6
  T1/2 (hepatocytes) R: 2.172 h
[2]
  CLint (liver) D: 46.9 mL/min/kg
[2]; dog
  CLint (hep) D: 6.8 μL/min/10^6
  T1/2 (hepatocytes) D: 3.39 h

## CN(C(=O)c1ccc2nc(N)c3cncn3c2c1)[C@@H]1COc2cc(C(F)(F)F)ccc21 [Compound 12]
[3]; Caco-2, pH 7.4
  efflux ratio at 2 h, 1 μM: 1.98
[3]; Caco-2, 1 μM, 2 hours, pH 7.4
  Papp A→B at 2 h, 1 μM: 6.07 ×10⁻⁶ cm/s
  Papp B→A at 2 h, 1 μM: 12 ×10⁻⁶ cm/s
In vitro [4]
  half-life at 1 μM: > 2.42 h
In vitro [5]
  half-life at 1 μM: > 2.42 h
[6]
  half-life at 1 μM: 1.11 h

## CN(C(=O)c1cc2c(cn1)nc(N)c1cncn12)C1CC(F)(F)c2cc(C(F)(F)F)ccc21 (stereo not shown) [Compound 24]
[7]; cynomolgus monkey liver microsome
  CLint (mic) C: 9.9 µL/min/mg
[7]; cynomolgus monkey liver microsome 0.5 mg protein/mL, 1 μM, NADPH
  T1/2 of LMS, C: 2.338 h
[7]; cynomolgus monkey liver microsome, scaled to liver
  CLint (liver) C: 13.3 mL/min/kg
